Data reported in patent US20240190896A1, “SMTP-7 DERIVATIVE AND USE THEREOF” (Shanghai Senhui Medicine Co., Ltd., priority 2021, published 2024).

Tests used:
[1] = Test Example 1: Pharmacokinetic study in rats (intravenous); format: in vivo; conditions: rat, SD rats, 5 mg/kg intravenous injection, plasma; for MRT last: read-out: MRT(0-t)
Method: A proper amount of each of SMTP-7 and compound 1 was weighed out, and 2% (final volume) DMSO and 98% (final volume) normal saline were added. After they were well mixed by vortexing and ultrasonication, a 1 mg/mL clear solution was obtained for later use.
SD Rats, at the Age of 6-8 Weeks, Weighing about 180-220 g.
About 0.20 mL of blood was collected for each sample via the jugular vein or other suitable is routes, and sodium heparin was used as the anticoagulant. The blood was placed on ice immediately after the collection. The collection was performed at a total of 10 time points: before administration, and 5 min, 0.25 h, 0.5 h, 1 h, 2 h, 4 h, 6 h, 10 h and 24 h after administration. The collected blood samples were placed in heparin anticoagulant blood collection tubes and centrifuged at 6800 g at 2-8° C. for 6 min to separate plasma. The plasma samples were stored in a freezer at −80° C. before analysis.
The plasma concentration of each test compound was determined. The analysis of quality control samples was performed while the samples were analyzed, and more than 66.7% of the quality control samples were required to have an accuracy of 80-120%.
When plasma drug concentration-time curves were plotted, BLQ was recorded as 0. When the pharmacokinetic parameters were calculated, the concentration before administration was calculated as 0; BLQ before Cmax (including “No peak”) was calculated as 0; and BLQ that occurs after Cmax (including “No peak”) was excluded from the calculation. The following pharmacokinetic parameters were calculated from the plasma concentration data of different time points using the non-compartmental analysis method of Phoenix WinNonlin 7.0 software: AUC(0−t), AUC(0−∞), T1/2, MRT, Cmax, Tmax, etc.

[2] = Test Example 2: Pharmacokinetic study in rats (intravenous); format: in vivo, SD rats; conditions: 5 mg/kg intravenous administration
Method: After they were well mixed by vortexing and ultrasonication, a 1 mg/mL clear solution was obtained for later use.
SD Rats, at the Age of 6-8 Weeks, Weighing about 180-240 g.
The pharmacokinetic parameters such as AUC(0−t), AUC(0−∞), T1/2, MRT, Cmax and Tmax were measured in rats according to the method of Test Example 1.

| Compound | AUC(0-t) [1] [ng·h/mL] | Cmax [1] [ng/mL] | Tmax [1] [min] | half-life [1] [h] | MRT last [1] [h] | AUC (comparison in words) [2] | T1/2 (comparison in words) [2] |
| --- | --- | --- | --- | --- | --- | --- | --- |
| [2H]C([2H])(CC[C@@H](C(=O)O)N1Cc2c(cc(O)c3c2O[C@@](C)(CC/C=C(\C)CCC=C(C)C)[C@@H](O)C3)C1=O)N1Cc2c(cc(O)c3c2O[C@@](C)(CC/C=C(\C)CCC=C(C)C)[C@@H](O)C3)C1=O [Compound 1, δ-Deutero SMTP-7] | 11300 | 19100 | 4.8 | 8.94 ± 0.61 | 3.06 ± 0.25 | – | – |
| [2H][C@](CCCN1Cc2c(cc(O)c3c2O[C@@](C)(CC/C=C(\C)CCC=C(C)C)[C@@H](O)C3)C1=O)(C(=O)O)N1Cc2c(cc(O)c3c2O[C@@](C)(CC/C=C(\C)CCC=C(C)C)[C@@H](O)C3)C1=O [Compound 2, α-Deutero SMTP-7] | – | – | – | – | – | did not greatly differ | did not greatly differ |
| [2H]C([2H])(CCN1Cc2c(cc(O)c3c2O[C@@](C)(CC/C=C(\C)CCC=C(C)C)[C@@H](O)C3)C1=O)[C@@H](C(=O)O)N1Cc2c(cc(O)c3c2O[C@@](C)(CC/C=C(\C)CCC=C(C)C)[C@@H](O)C3)C1=O [Compound 3, β-Deutero SMTP-7] | – | – | – | – | – | did not greatly differ | did not greatly differ |
| [2H]C([2H])(C[C@@H](C(=O)O)N1Cc2c(cc(O)c3c2O[C@@](C)(CC/C=C(\C)CCC=C(C)C)[C@@H](O)C3)C1=O)CN1Cc2c(cc(O)c3c2O[C@@](C)(CC/C=C(\C)CCC=C(C)C)[C@@H](O)C3)C1=O [Compound 4, γ-Deutero SMTP-7] | – | – | – | – | – | lower AUC than SMTP-7 | lower T1/2 |
| CC(C)=CCC/C(C)=C/CC[C@]1(C)Oc2c(c(O)cc3c2CN(CCC[C@@H](C(=O)O)N2Cc4c(cc(O)c5c4O[C@@](C)(CC/C=C(\C)CCC=C(C)C)[C@@H](O)C5)C2=O)C3=O)C[C@@H]1O [SMTP-7, Stachybotrys microspore triprenyl phenol-7] | 8010 | 26300 | 4.8 | 6.69 ± 0.178 | 0.465 ± 0.08 | did not greatly differ | did not greatly differ |
